The subject of one data set is NCI-H520 cells. As to conditions: NCI-H520 xenograft, day 22, combination of both.
The subject of the next data set is HS 746T cells. As to the kind of experiment: Antitumor activity in mouse xenograft model of human gastric cancer (HS 746T). The class given is in vivo. As to conditions: HS 746T xenograft, combination of both. From the text: (§1) For tumor volume, absolute values were used.
(§2) Appropriate statistical methods were used for evaluation.
HS 746T: Approximately 6 week old mice.

Data set [1] deals with GXA 3039 gastric cancer PDX model.
Description: Mice were housed in individual ventilated cages ([sequence] Sealsafe™-IVC-System, [sequence], Hohenpeissenberg, Germany), and type II or III cages were selected according to the number of experimental animals. The cages were under the conditions: 14L:10D light-dark cycle, air exchange (AC) rate of 60-65 AC/hr in the cage, 25±1° C. and 40-70% humidity. […] Water and diet were changed twice a week, and all materials were autoclaved before use.
Tumor fragments were implanted subcutaneously into the flank of female pre-study mice. […] Animals that were not randomized were euthanized. The date of randomization was designated as day 0 of the test, and dosing began on day 1. […] If less than 70% of the original number of mice survived (i.e. less than 6 out of 8), the entire group was terminated. […] Tolerability was assessed using the group with the largest median body weight loss (BWL) among groups.
Inhibition of tumor growth was determined by calculating TGI.
Additional endpoints used to assess efficacy included: time to tumor volume doubling/quadrupling and tumor growth delay/time to tumor progression/tumor repopulation.
Time to tumor volume doubling/quadrupling: The time to tumor volume doubling/quadrupling (Td/Tq) for the test and control groups was defined as the time interval (in days) required for each group to reach 200%/400% of the median RTV. The relative volume of a single tumor on day X (RTVx [%]) was obtained by dividing the absolute volume of the tumor on day X (Tx) by the absolute volume of the tumor on day 0 (T0) and then multiplying it by 100, as follows:
Tumor growth delay/time to tumor progression/tumor repopulation: To assess the difference in time to tumor progression/tumor repopulation after tumor regression during the no-dose observation period (tumor growth delay, TGD), Kaplan-Meier survival analysis was used. A relative tumor volume of 400% was defined as the endpoint.
The control group for oral administration was 0.5% Natrosol. The control group for intravenous administration was 0.9% saline. Each dose was 10 ml/kg.
Data were used for statistical analysis at the end of the study. The one-tailed nonparametric Mann-Whitney-Wilcoxon U test was used with the significance level a set at 0.05. The p-values obtained from the U-test were adjusted using the Bonferroni-Holm correction.
To assess the statistical significance of differences in time to tumor progression/tumor growth delay (TGD) using 400% of RTV as the trial endpoint, the Kaplan-Meier survival mode statistic was used in conjunction with the log-rank Mantel-Cox test for pairwise comparisons.
Additionally, to assess tolerance to treatment, a two-tailed nonparametric Mann-Whitney-Wilcoxon U test was performed using body weights determined at the end of the dosing period (i.e., on the day TGI values were calculated).
By convention, p-values≤0.05 represented significant tumor inhibition or weight loss.
The test system of another data set is KYSE-70 cells. The data set can be described thus: Antitumor activity in mouse xenograft model of human esophageal cancer (KYSE-70). The class given is in vivo. As to conditions: KYSE-70 xenograft, combination of both.
A further data set has as its system KYSE-270 cells. As to the kind of experiment: Antitumor activity in mouse xenograft model of human esophageal cancer (KYSE-270). The class given is in vivo. As to conditions: KYSE-270 xenograft.
Description: as §1, §2
Mice were approximately 8-10 weeks old.
KYSE-270 was a cell line for esophageal cancer (Public Health England, Cat. No. 94072021).
For orientation: A xenograft is tissue or cells of one species grown in another, often human tumour cells in immunodeficient mice.

The mark [2] stands for this setting: BI 853520 50 mg/kg qd, cisplatin 5 mg/kg IP q7d.
[3] abbreviates: BI 853520 50 mg/kg qd, docetaxel 10 mg/kg q7d.
Where [4] appears, read: BI 853520 50 mg/kg qd, paclitaxel 10 mg/kg q7d, combination of both.

Where “and” joins values, the source holds several entries; their conditions need not be identical. Equal values may be shown once. Entries after “also recorded” stand apart in the source; their conditions may differ.

Description for NCI-H520 cells: Mice were approximately 6 weeks old. There were 5 mice in each group.
The cell concentration of the culture was maintained between 8×10^6 to 12×10^7 cells/tissue culture flask.
Cisplatin was dissolved in 0.9% saline.
Statistical evaluation was performed using the Student's t-test function in Microsoft Excel, utilizing a two-tailed distribution and a two-sample equal variance type.

Regarding `N.N.[Cl][Pt][Cl]` [Cisplatin, reference compound], the Median tumor volume with NCI-H520 cells (BI 853520 50 mg/kg qd by gavage, cisplatin 5 mg/kg IP once a week) is on record as 228 mm^3. Besides, in the data set on NCI-H520 cells (setting [2]), the “Median TGI” value is on record as 74% and the “Tumor regression (animals with regression/animals in group)” value was 0/7.
As for `CC(=O)O[C@@]12CO[C@@H]1C[C@H](O)[C@@]1(C)C(=O)[C@H](O)C3=C(C)[C@@H](OC(=O)[C@H](O)[C@@H](NC(=O)OC(C)(C)C)c4ccccc4)C[C@@](O)([C@@H](OC(=O)c4ccccc4)[C@H]21)C3(C)C` [Docetaxel, reference compound], in the data set with HS 746T cells (day 24 (withdrawal on day 28), BI 853520 50 mg/kg qd by gavage, docetaxel 10 mg/kg q7d i.v.), the Median tumor volume was found to be 0 mm^3. Besides, in the data set with HS 746T cells (setting [3]), the “Antitumor effect (in words)” value is reported as “had inhibitory effect”, the “Change in median body weight” value was 6.7% and the TGI is recorded as 108%. Further, in data set [1] (GXA 3039 PDX, time to 200% of median RTV, doses as Table 8), the “Td (time to tumor volume doubling)” value came out at 8.5 days. In data set [1] (GXA 3039 PDX, time to 400% of median RTV, nr = not reached until end of test, doses as Table 8), the “Tq (time to tumor volume quadrupling)” value stood at 108.0 days. Moreover, the “TGI [%] (d)” value in data set [1] (GXA 3039 gastric cancer PDX, day 36, BI 853520 50 mg/kg/d PO days 1-35, docetaxel 10 mg/kg IV days 1, 8, 15, 22, 29, combination of both) is 113% and 113(36) %. In addition, the Survival rate in data set [1] (female, BomTac:NMRI-Foxn1nu, mouse, in vivo) is given as 2/8. Moreover, in data set [1] (mouse, in vivo), the “Median BWL maximum” value is 2.1% and the “Median BWL maximum, day” value came to 2 days. In the data set with KYSE-70 cells (day 42, BI 853520 50 mg/kg qd by gavage, docetaxel 10 mg/kg q7d i.v.), the Median tumor volume was determined as 73 mm^3. Also, in the data set on KYSE-70 cells (setting [3]), the “Antitumor effect (in words)” value was “had inhibitory effect”, the “Change in median body weight” value was determined as 5.6% and the TGI is listed as 100%.
On to `CC(=O)O[C@H]1C(=O)[C@@]2(C)[C@H]([C@H](OC(=O)c3ccccc3)[C@]3(O)C[C@H](OC(=O)[C@H](O)[C@@H](NC(=O)c4ccccc4)c4ccccc4)C(C)=C1C3(C)C)[C@]1(OC(C)=O)CO[C@@H]1C[C@@H]2O` [Paclitaxel], for which, in the data set with KYSE-270 cells (day 13, BI 853520 50 mg/kg qd by gavage, paclitaxel 10 mg/kg q7d i.v., combination of both), the Median tumor volume turned out to be 1033 mm^3. Further, in the data set with KYSE-270 cells (day 13, BI 853520 50 mg/kg qd, paclitaxel 10 mg/kg q7d, combination of both), the TGI was 2%. For the same compound, in the data set with KYSE-270 cells (setting [4]), the “Antitumor effect (in words)” value is “no effect on tumor growth; also recorded: had no effect”; the “Change in median body weight” value is −9.7%; the “Tumor regression (animals with regression/animals in group)” value was “no tumor regression and 0/7”. Moreover, the “Animal body weight decreased by” value in the data set on KYSE-270 cells (paclitaxel 10 mg/kg q7d, value is a decrease) worked out at 9.7%.
